Tested on: K86415-001-R-J1-PDC complex spheroids, viability
Assay: Anticancer human tumor K86415-001-R-J1-PDC patient-derived lung adenocarcinoma cell line growth inhibition [RAS]
Settings: for viability, T/C: stronger effect = lower value; active = viability on the fitted dose curve at most 10% of control; inactive = the rest
From the text: RAS pathway inhibitors in Combinations in Complex Spheroids
A high-throughput screen of multi-cell type tumor spheroids was designed to identify active combinations of RAS pathway inhibitors and targeted small molecules. Complex spheroids include a stromal component modeled by human endothelial cells (HUVEC) and fibroblasts modeled by human mesenchymal stem cells (MSCs). The concentration ranges selected for each drug and investigational agent were based upon clinically achievable concentrations if the clinical Cmax of the agent was known.
Compounds. The drugs and investigational agents: abemaciclib (NSC768073), cobimetinib (NSC768068), divarasib (GDC6063, NSC841802), docetaxel (NSC628503), GDC-1971 (RLY-1971, NSC841576), gemcitabine (NSC613327), inavolisib (NSC800729), ipatasertib (NSC767898), KB-0742 (NSC834161), MRTX-1133 (NSC836407), osimertinib (NSC779217), RMC-4630 (NSC839698), RMC-6236 (NSC851965), RMC-6291 (NSC852671), Ro-3306 (NSC812927), sapanisertib (NSC764658), SN-38 (NSC673596), staurosporine (NSC755774), SY5609 (NSC837396), and tovorafenib (DAY101, NSC766906), were obtained from the National Cancer Institute (NCI) Developmental Therapeutics Program Chemical Repository. The FDA-approved anticancer drug set is available from the NCI Developmental Therapeutics Program. […] The stock solutions were prepared in dimethyl sulfoxide (DMSO, Sigma-Aldrich, St. Louis, MO, cat. D2650) at 800-fold the tested concentration and stored at -70 degrees C prior to their use. All drugs and investigational agents were tested over a range starting from a high concentration at or near the clinical Cmax and decreasing in half-log increments. If the clinical Cmax for an agent had not been determined, the highest concentration tested was 10 microM.
Cell Culture. All cells were maintained in an incubator at 37 degrees C and 5% CO2 with 95% humidity. The PDC lines were cultured according to standard operating procedures established by the NCI PDMR. All PDCs were thawed and cultured in Matrigel-coated flasks prepared with a working solution of 1X Ham's F-12 nutrient mix, without supplementation (Invitrogen, Waltham, MA, cat. 11765054), 100 U/mL penicillin-streptomycin (Invitrogen, cat. 15140122), and 2.5% Matrigel (Corning Inc., Corning, NY, cat. 354248) for the first three passages. The 362531-283-R-J2-PDC and 782815-120-R-J1-PDC lines were cultured in 6C/Colon 1B media, which includes advanced DMEM/F-12 (Thermo Fisher Scientific, cat. 12634028), 10 mM HEPES (Thermo Fisher Scientific, cat. 15630080), 1X GlutaMAX supplement (Thermo Fisher Scientific, cat. 35050061), 0.1 mg/mL primocin (InvivoGen, San Diego, CA, cat. ant-pm-2), 10% defined fetal bovine serum, heat inactivated (HyClone Laboratories Inc., Logan, UT, cat. SH30070.03HI), 50% L-WRN conditioned media (ATCC, cat. CRL-3276), 1.25 mM N-Acetyl-L-cysteine (Sigma-Aldrich, cat. A9165), 10 mM nicotinamide (Sigma-Aldrich, cat. N0636), 1X B-27 supplement (Thermo Fisher Scientific, cat. 17504044), 1X N-2 supplement (Thermo Fisher Scientific, cat. 17502048), 50 ng/mL human EGF (Thermo Fisher Scientific, cat. PHG0311), and 10 microM Y-27632 dihydrochloride (Tocris Bioscience, cat. 1254). The K12877-001-R-J1-PDC line was cultured in 6I media, which includes all 6C/Colon 1B media plus 10 ng/mL human FGF-10 (PeproTech, cat. 100-26), 1 ng/mL human FGF-2 (PeproTech, cat. 100-18B), 1 µM prostaglandin E2 (Tocris Bioscience, cat. 2296), […] hydrocortisone (Sigma-Aldrich, cat. H4001), and […] bovine insulin (Sigma-Aldrich, cat. I6634). The K86415-001-R-J1-PDC line was cultured in 6D media, which includes all 6C/Colon 1B media components minus the L-WRN conditioned media. The 485176-168-R4-J1-PDC was cultured in PANC media, which includes all 6C/Colon 1B media plus 100 ng/mL human FGF-10 (PeproTech, cat. 100-26), 500 nM SB-431542 (Selleckchem, cat. S1067), and 10 nM gastrin (Tocris Bioscience, cat. 3006). […]
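Note: spheroids exposed to agents for seven days before readout.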

CC(=O)OC12COC1CC(O)C1(C)C(=O)C(O)C3=C(C)C(OC(=O)C(O)C(NC(=O)OC(C)(C)C)c4ccccc4)CC(O)(C(OC(=O)c4ccccc4)C21)C3(C)C (centres undefined) + C=CC(=O)N1CCN(c2nc(OCC3CCCN3C)nc3c(F)c(-c4nc(N)cc(C)c4C(F)(F)F)c(Cl)cc23)C(C)C1
active: viability, T/C (second compound 0.0316 µM, first compound 0.1 µM) 10.8% | viability, T/C (second compound 0.0316 µM, first compound 0.316 µM) 9.94% | viability, T/C (second compound 0.0316 µM, first compound 1 µM) 9.79% | viability, T/C (second compound 0.0316 µM, first compound 3.16 µM) 10.3% | viability, T/C (second compound 0.0316 µM, first compound 10 µM) 8.13% | viability, T/C (second compound 0.316 µM, first compound 0.0316 µM) 7.89% | viability, T/C (second compound 0.316 µM, first compound 0.1 µM) 9.45% | viability, T/C (second compound 0.316 µM, first compound 0.316 µM) 11.5% | viability, T/C (second compound 0.316 µM, first compound 1 µM) 9.36% | viability, T/C (second compound 0.316 µM, first compound 3.16 µM) 10.3% | viability, T/C (second compound 0.316 µM, first compound 10 µM) 8.4%
< 31.6 nM: IC50 (curve of first compound, second compound 0.00316 µM) | IC50 (curve of first compound, second compound 0.01 µM) | IC50 (curve of first compound, second compound 0.0316 µM) | IC50 (curve of first compound, second compound 0.1 µM) | IC50 (curve of first compound, second compound 0.316 µM) | IC50 (curve of first compound, second compound 1 µM)
inactive: viability, T/C (second compound 0.00316 µM, first compound 0.0316 µM) 15.6% | viability, T/C (second compound 0.00316 µM, first compound 0.1 µM) 15.6% | viability, T/C (second compound 0.00316 µM, first compound 0.316 µM) 16.5% | viability, T/C (second compound 0.00316 µM, first compound 1 µM) 15.9% | viability, T/C (second compound 0.00316 µM, first compound 3.16 µM) 15.5% | viability, T/C (second compound 0.00316 µM, first compound 10 µM) 15.2% | viability, T/C (second compound 0.01 µM, first compound 0.0316 µM) 13.9% | viability, T/C (second compound 0.01 µM, first compound 0.1 µM) 14.1% | viability, T/C (second compound 0.01 µM, first compound 0.316 µM) 12.5% | viability, T/C (second compound 0.01 µM, first compound 1 µM) 13.2% | viability, T/C (second compound 0.01 µM, first compound 3.16 µM) 10.8% | viability, T/C (second compound 0.01 µM, first compound 10 µM) 9.16% | viability, T/C (second compound 0.0316 µM, first compound 0.0316 µM) 11.1% | viability, T/C (second compound 0.1 µM, first compound 0.0316 µM) 9.79% | viability, T/C (second compound 0.1 µM, first compound 0.1 µM) 11.2% | viability, T/C (second compound 0.1 µM, first compound 0.316 µM) 9.84% | viability, T/C (second compound 0.1 µM, first compound 1 µM) 9.57% | viability, T/C (second compound 0.1 µM, first compound 3.16 µM) 11.5% | viability, T/C (second compound 0.1 µM, first compound 10 µM) 9.04% | viability, T/C (second compound 1 µM, first compound 0.0316 µM) 8.13% | viability, T/C (second compound 1 µM, first compound 0.1 µM) 10.6% | viability, T/C (second compound 1 µM, first compound 0.316 µM) 12.8% | viability, T/C (second compound 1 µM, first compound 1 µM) 9.39% | viability, T/C (second compound 1 µM, first compound 3.16 µM) 11.2% | viability, T/C (second compound 1 µM, first compound 10 µM) 10.5%

CCN1CCN(Cc2ccc(Nc3ncc(F)c(-c4cc(F)c5nc(C)n(C(C)C)c5c4)n3)nc2)CC1
> 1000 nM: IC50 (curve of compound)
inactive: viability, T/C (compound 0.00316 µM) 97.9% [middle of 4 runs] | viability, T/C (compound 0.01 µM) 90.2% [middle of 4 runs] | viability, T/C (compound 0.0316 µM) 78.5% [middle of 4 runs] | viability, T/C (compound 0.1 µM) 71.3% [middle of 4 runs] | viability, T/C (compound 0.316 µM) 70.2% [middle of 4 runs] | viability, T/C (compound 1 µM) 71.4% [middle of 4 runs]
